Data: patent publication US20150056272A1, “Synergistic Antimicrobial Preparations Containing Chlorite and Hydrogen Peroxide” (S.K. Pharmaceuticals, Inc., priority 1998, published 2015)

System: candida albicans
Assay: Candida albicans challenge (log reduction)
Assay type: cell-based
Conditions: components applied separately at the same concentrations (400 ppm chlorite; 100 ppm hydrogen peroxide)

Compound	effect on candida albicans activity
OO [hydrogen peroxide]	ineffective
chlorite	ineffective
